The record followed here is patent publication US20230002334A1, “TRPM8 MODULATORS” (Givaudan SA, priority 2019, published 2023).

For this assay, the target named is T1, hTRPM8 (Homo sapiens, UniProt Q7Z2W7).
T1 construct: expressed in transfected cells
The assay can be described thus: Assay on TRPM8 modulators: calcium imaging (Fluo-4, Flexstation) in HEK293 cell line stably expressing hTRPM8. It counts as cell-based. The note with it: HEK293 cells stably expressing hTRPM8, calcium influx, sigmoidal dose-response fit; read-out: EC50. On the procedure: A HEK293 cell line stably expressing hTRPM8 was generated according to Klein et al., (Chem. Senses 36: 649-658, 2011) and receptor activation was monitored by calcium imaging in a Flexstation. For Ca-imaging assays of TRPM8 channel activation, cells were seeded on day 0 at a density of 12000 cells per well in Dulbecco's modified Eagle medium (DMEM) containing 9% foetal bovine serum in black, clear bottom 96-well plates that had been coated with 0.001% polyethyleneimine (molecular weight=60 000, Acros Organics). On day 2, agonists were evaluated via calcium imaging using Fluo-4. Briefly, growth medium was discarded, and the cells were incubated in the dark for 1 h at 37° C. in 50 μL loading buffer consisting of 2.7 μM Fluo-4 AM (Invitrogen) and […] probenecid (Sigma-Aldrich) in DMEM (without serum). After incubation, the plates were washed five times with 100 μL of assay buffer (in mM: 130 NaCl, 5 KCl, 10 HEPES, 2 CaCl2, and 10 glucose, pH7.4.) and further incubated in the dark at room temperature for 30 min. The cells were then washed five times with 100 μL assay buffer and then calcium influx to serial dilutions of inventive compounds were measured in a Flexstation 3 (Molecular Devices). Receptor activation was initiated following addition of 20 μl of a 10-fold concentrated ligand stock solution, which is also prepared in assay buffer. Fluorescence was continuously monitored for 15 seconds prior to ligand addition and for 105 seconds after ligand addition, for a total of 120 seconds. Maximal receptor activation in relation to solvent control and relative to 31.6 μM menthol is determined. Data from serial dilutions were processed with a KNIME workflow to fit a sigmoidal dose-response curve and to extrapolate EC50 values.

T1 sequence (Q7Z2W7 whole entry): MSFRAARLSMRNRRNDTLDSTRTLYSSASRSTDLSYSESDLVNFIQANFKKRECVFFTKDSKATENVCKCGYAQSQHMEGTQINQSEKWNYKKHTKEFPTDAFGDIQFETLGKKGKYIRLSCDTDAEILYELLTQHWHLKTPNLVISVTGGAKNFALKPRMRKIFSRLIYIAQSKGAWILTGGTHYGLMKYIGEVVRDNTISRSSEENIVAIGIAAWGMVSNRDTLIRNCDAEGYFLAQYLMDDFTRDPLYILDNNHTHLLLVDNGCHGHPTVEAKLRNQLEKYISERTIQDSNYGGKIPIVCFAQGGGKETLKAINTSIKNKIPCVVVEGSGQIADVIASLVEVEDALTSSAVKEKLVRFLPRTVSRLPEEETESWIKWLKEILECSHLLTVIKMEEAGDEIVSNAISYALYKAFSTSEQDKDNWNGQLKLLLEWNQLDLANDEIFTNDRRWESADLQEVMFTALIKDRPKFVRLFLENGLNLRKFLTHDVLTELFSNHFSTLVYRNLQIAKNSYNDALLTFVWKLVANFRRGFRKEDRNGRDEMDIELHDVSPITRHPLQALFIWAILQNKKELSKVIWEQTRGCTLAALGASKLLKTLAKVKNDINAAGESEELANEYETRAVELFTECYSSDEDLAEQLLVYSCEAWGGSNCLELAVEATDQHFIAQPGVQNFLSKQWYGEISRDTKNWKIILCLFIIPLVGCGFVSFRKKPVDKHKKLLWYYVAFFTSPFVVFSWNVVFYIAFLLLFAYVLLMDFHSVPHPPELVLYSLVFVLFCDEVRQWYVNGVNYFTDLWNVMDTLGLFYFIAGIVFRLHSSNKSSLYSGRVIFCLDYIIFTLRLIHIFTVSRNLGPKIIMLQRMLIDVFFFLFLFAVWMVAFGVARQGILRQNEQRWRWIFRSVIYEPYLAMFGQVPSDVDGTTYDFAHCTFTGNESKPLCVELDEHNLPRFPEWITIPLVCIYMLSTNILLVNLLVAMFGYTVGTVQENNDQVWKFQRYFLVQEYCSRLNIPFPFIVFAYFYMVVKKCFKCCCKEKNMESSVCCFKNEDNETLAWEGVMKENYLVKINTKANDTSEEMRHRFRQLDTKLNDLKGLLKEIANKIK

Regarding `CCCCC[C@@H]1CC[C@@H]2[C@@H](C1)C(C)(C)ON2C` (racemic) [Compound 23, rac-(3aR,5R,7aR)-1,3,3-trimethyl-5-pentyloctahydrobenzo[c]isoxazole], the EC50 (usually the concentration at which the effect is half-maximal) was in the range of 300 to 1000 nM.

`CCC[C@@H]1CC[C@@H]2[C@@H](C1)C(C)(C)ON2C` (racemic) [Compound 24, rac-(3aR,5R,7aR)-1,3,3-trimethyl-5-propyloctahydrobenzo[c]isoxazole]: the EC50 was in the range of 300 to 1000 nM.

Take `CCC[C@@H]1CC[C@@H]2[C@@H](C1)C(C)(C)ON2CC` (racemic) [Compound 25, rac-(3aR,5R,7aR)-1-ethyl-3,3-dimethyl-5-propyloctahydrobenzo[c]isoxazole]: the EC50 fell in the range of 300 to 1000 nM.

`CCCC[C@@H]1CC[C@@H]2[C@@H](C1)C(C)(C)ON2C` (racemic) [Compound 27, rac-(3aR,5R,7aR)-5-butyl-1,3,3-trimethyloctahydrobenzo[c]isoxazole]: the concentration giving a half-maximal response (EC50) is 300 to 1000 nM.

Take `CCCC[C@@H]1CC[C@@H]2[C@@H](C1)C(C)(C)ON2CC` (racemic) [Compound 28, rac-(3aR,5R,7aR)-5-butyl-1-ethyl-3,3-dimethyloctahydrobenzo[c]isoxazole]: the EC50 lay in the range of 300 to 1000 nM.

In the case of `CCCC[C@@H]1CC[C@@H]2[C@@H](C1)C(C)(C)ON2C(C)C` (racemic) [Compound 29, rac-(3aR,5R,7aR)-5-butyl-1-isopropyl-3,3-dimethyloctahydrobenzo[c]isoxazole], the EC50 fell in the range of 1000 to 35000 nM.

On to `CC[C@@H]1CC[C@@H]2[C@@H](C1)C(C)(C)ON2C(C)C` (racemic) [Compound 30, rac-(3aR,5R,7aR)-5-ethyl-1-isopropyl-3,3-dimethyloctahydrobenzo[c]isoxazole], for which the concentration for a half-maximal effect (EC50) lay within 1000 to 35000 nM.

In the case of `CSc1ccccc1[C@]1(C)C[C@@H](C)[C@@H]2[C@@H](C1)C(C)(C)ON2C` (racemic) [Compound 31, rac-(3aR,5R,7R,7aR)-1,3,3,5,7-pentamethyl-5-(2-(methylthio)phenyl)octahydrobenzo[c]isoxazole], the EC50 lay within 1000 to 35000 nM.

Take `CCN1OC(C)(C)[C@@H]2C[C@](C)(CC=C(C)C)C[C@@H](C)[C@H]21` (racemic) [Compound 32, rac-(3aR,5R,7R,7aR)-1-ethyl-3,3,5,7-tetramethyl-5-(3-methylbut-2-en-1-yl)octahydrobenzo[c]isoxazole]: the EC50 fell in the range of 1000 to 35000 nM.

On to `CCN1OC(C)(C)[C@@H]2C[C@](C)(c3ccccc3C)C[C@@H](C)[C@H]21` (racemic) [Compound 33, rac-(3aR,5R,7R,7aR)-1-ethyl-3,3,5,7-tetramethyl-5-(o-tolyl)octahydrobenzo[c]isoxazole], for which the EC50 was 300 to 1000 nM.

With `Cc1c(Cl)cccc1[C@]1(C)C[C@@H](C)[C@@H]2[C@@H](C1)C(C)(C)ON2C` (racemic) [Compound 34, rac-(3aR,5R,7R,7aR)-5-(3-chloro-2-methylphenyl)-1,3,3,5,7-pentamethyloctahydrobenzo[c]isoxazole], the EC50 is 300 to 1000 nM.

Consider `Cc1cc(F)ccc1[C@]1(C)C[C@@H](C)[C@@H]2[C@@H](C1)C(C)(C)ON2C` (racemic) [Compound 35, rac-(3aR,5R,7R,7aR)-5-(4-fluoro-2-methylphenyl)-1,3,3,5,7-pentamethyloctahydrobenzo[c]isoxazole], for which the EC50 was in the range of 1000 to 35000 nM.

Consider `COc1ccc([C@]2(C)C[C@@H](C)[C@@H]3[C@@H](C2)C(C)(C)ON3C)cc1` (racemic) [Compound 36, rac-(3aR,5R,7R,7aR)-5-(4-methoxyphenyl)-1,3,3,5,7-pentamethyloctahydrobenzo[c]isoxazole], for which the half-maximal effective concentration (EC50) lay in the range of 1000 to 35000 nM.

As to `CSc1ccccc1[C@@]1(C)C[C@@H]2[C@@H]([C@@H](C)C1)N(C)OC2(C)C` (racemic) [Compound 37, rac-(3aR,5R,7S,7aR)-1,3,3,5,7-pentamethyl-5-(2-(methylthio)phenyl)octahydrobenzo[c]isoxazole], the EC50 was in the range of 50 to 300 nM.

Consider `Cc1cc(C)c([C@@]2(C)C[C@@H]3[C@@H]([C@@H](C)C2)N(C)OC3(C)C)cc1C` (racemic) [Compound 38, rac-(3aR,5R,7S,7aR)-1,3,3,5,7-pentamethyl-5-(2,4,5-trimethylphenyl)octahydrobenzo[c]isoxazole], for which the 50% effective concentration (EC50) fell in the range of 50 to 300 nM.

With `Cc1ccc(C(F)(F)F)cc1[C@@]1(C)C[C@@H]2[C@@H]([C@@H](C)C1)N(C)OC2(C)C` (racemic) [Compound 39, rac-(3aR,5R,7S,7aR)-1,3,3,5,7-pentamethyl-5-(2-methyl-5-(trifluoromethyl)phenyl)octahydrobenzo[c]isoxazole], the EC50 was in the range of 300 to 1000 nM.

Turning to `CSc1ccc([C@@]2(C)C[C@@H]3[C@@H]([C@@H](C)C2)N(C)OC3(C)C)cc1` (racemic) [Compound 40, rac-(3aR,5R,7S,7aR)-1,3,3,5,7-pentamethyl-5-(4-(methylthio)phenyl)octahydrobenzo[c]isoxazole], the concentration giving a half-maximal response (EC50) lay in the range of 50 to 300 nM.

Regarding `Cc1ccc([C@@]2(C)C[C@@H]3[C@@H]([C@@H](C)C2)N(C)OC3(C)C)s1` (racemic) [Compound 41, rac-(3aR,5R,7S,7aR)-1,3,3,5,7-pentamethyl-5-(5-methylthiophen-2-yl)octahydrobenzo[c]isoxazole], the EC50 was in the range of 300 to 1000 nM.

`Cc1cc([C@@]2(C)C[C@@H]3[C@@H]([C@@H](C)C2)N(C)OC3(C)C)cs1` (racemic) [Compound 42, rac-(3aR,5R,7S,7aR)-1,3,3,5,7-pentamethyl-5-(5-methylthiophen-3-yl)octahydrobenzo[c]isoxazole]: the EC50 fell in the range of 50 to 300 nM.

For the compound `Cc1cccc([C@@]2(C)C[C@@H]3[C@@H]([C@@H](C)C2)N(C)OC3(C)C)c1` (racemic) [Compound 43, rac-(3aR,5R,7S,7aR)-1,3,3,5,7-pentamethyl-5-(m-tolyl)octahydrobenzo[c]isoxazole], the EC50 was in the range of 50 to 300 nM.

Regarding `C[C@H]1C[C@@](C)(c2cccc3ccccc23)C[C@@H]2[C@@H]1N(C)OC2(C)C` (racemic) [Compound 44, rac-(3aR,5R,7S,7aR)-1,3,3,5,7-pentamethyl-5-(naphthalen-1-yl)octahydrobenzo[c]isoxazole], the concentration for a half-maximal effect (EC50) fell in the range of 300 to 1000 nM.

In the case of `C[C@H]1C[C@@](C)(c2ccc3ccccc3c2)C[C@@H]2[C@@H]1N(C)OC2(C)C` (racemic) [Compound 45, rac-(3aR,5R,7S,7aR)-1,3,3,5,7-pentamethyl-5-(naphthalen-2-yl)octahydrobenzo[c]isoxazole], the EC50 fell in the range of 50 to 300 nM.

On to `Cc1ccc([C@@]2(C)C[C@@H]3[C@@H]([C@@H](C)C2)N(C)OC3(C)C)cc1` (racemic) [Compound 47, rac-(3aR,5R,7S,7aR)-1,3,3,5,7-pentamethyl-5-(p-tolyl)octahydrobenzo[c]isoxazole], for which the EC50 is 50 to 300 nM.

In the case of `CCC[C@@]1(C)C[C@@H]2[C@@H]([C@@H](C)C1)N(C)OC2(C)C` (racemic) [Compound 49, rac-(3aR,5R,7S,7aR)-1,3,3,5,7-pentamethyl-5-propyloctahydrobenzo[c]isoxazole], the half-maximal effective concentration (EC50) was in the range of 300 to 1000 nM.

With `Cc1ccccc1[C@H]1C[C@@H]2[C@@H]([C@@H](C)C1)N(C)OC2(C)C` (racemic) [Compound 51, rac-(3aR,5R,7S,7aR)-1,3,3,7-tetramethyl-5-(o-tolyl)octahydrobenzo[c]isoxazole], the concentration giving a half-maximal response (EC50) was in the range of 300 to 1000 nM.

Regarding `C[C@H]1C[C@@H](c2ccccc2)C[C@@H]2[C@@H]1N(C)OC2(C)C` (racemic) [Compound 52, rac-(3aR,5R,7S,7aR)-1,3,3,7-tetramethyl-5-phenyloctahydrobenzo[c]isoxazole], the EC50 was 50 to 300 nM.
